Like-named read-outs stand apart in the source and are kept apart here.
What was measured:
MIA PaCa-2 cells = assay: Growth inhibition activity on KRAS-G12C mutant cell line (CellTiter-Glo 3D); type: cell-based, human; conditions: MIA PaCa-2, 3-day culture with compound
Procedure: MIA PaCa-2 cells (given by Sumitomo Dainippon Pharma Co., Ltd.), which are a KRAS-G12C mutant human pancreas cancer cell line, were suspended in a 10% fetal bovine serum-containing RPMI1640 medium (manufactured by Fujifilm Wako Pure Chemical Corporation). The cell suspension was seeded into each well of a 384-well U bottom microplate and cultured in an incubator containing 5% CO2 gas at 37° C. for 1 day. The compounds obtained in the “Preparation of Compounds” section were used as test compounds and were dissolved in DMSO, respectively, and each test compound was diluted with DMSO to give a concentration 500 times the final concentration. The resultant solution of the test compound in DMSO was diluted with the medium used for suspending cells and added to each well of the cell-culture plate to give a DMSO final concentration of 0.2%, followed by culture in an incubator containing 5% CO2 gas at 37° C. for another 3 days. The cell count after 3-day culture in the presence of the test compound was measured using CellTiter-Glo 3D Reagent (manufactured by Promega Corporation). All wells were added with CellTiter-Glo 3D Reagent and mixed for 10 minutes. 30 minutes after mixing, luminescence was measured by a plate reader. The growth inhibition rate was calculated from the following equation, and the concentration of the test compound at which 50% inhibition was achieved (IC50 (nM)) was determined.
[formula] • T: the emission intensity in a well into which a test compound was added. • C: the emission intensity in a well into which a test compound was not added.

[1] = target: T1, interaction between GMPPNP-bound recombinant K-Ras4B G12C mutant protein and cRAF RAS-binding domain (cRAF-RBD) (Homo sapiens, UniProt P01116, G12C); assay: Inhibitory activity on interaction between KRAS G12C and cRAF (Alpha technology)
T1 construct: His-tag (N)
Procedure: Interaction between recombinant K-Ras4B G12C mutant protein (amino acids 1-169, SEQ ID NO:2) and cRAF RAS-binding domain (cRAF-RBD, amino acids 50-132, Jena Biosciences GmbH) was measured using Alpha technology (PerkinElmer Inc.).
Recombinant KRAS G12C protein with an N-terminal His-tag was expressed in E. coli and purified by affinity chromatography. To prepare GTP-bound form and GDP-bound form of KRAS G12C protein, 50 μM KRAS G12C protein was incubated with 1 mM GMPPNP (Guanosine-5′-[(β,γ)-imido]triphosphate, Tetralithium salt) (Jena Bioscience GmbH) and 1 mM GDP, respectively, in a loading buffer (20 mM Tris-HCl (pH 7.5), 50 mM NaCl, 1 mM DTT and 2.5 mM EDTA) for 1 hour on ice. After the incubation, MgCl2 was added to a final concentration of 10 mM, followed by incubation at room temperature for 30 minutes. The mixture was allowed to pass through a NAP-5 column to remove free nucleotides and purified, and the resultant nucleotide-bound KRAS G12C protein was used for compound evaluation.
For the measurement of the inhibitory activity of compounds on interaction between KRAS G12C and cRAF-RBD, GMPPNP-bound KRAS G12C protein was incubated with various concentrations of compound in a reaction buffer (20 mM Tris-HCl (pH 7.5), 100 mM NaCl, 1 mM MgCl2, 1 mM TCEP, 0.1% Tween 20) at 25° C. for 1 hour. After the incubation, recombinant cRAF-RBD and Alpha detection reagents were added and incubated at room temperature for 1.5 hours for binding. Interaction of KRAS G12C and cRAF-RBD was monitored by measuring Alpha signal. Inhibition % was calculated using the signal from the reaction without test compound (DMSO control) as 0% inhibition and the signal from the reaction using GDP-bound KRAS G12C in place of GMPPNP-bound KRAS G12C as 100% inhibition. IC50 values were calculated from dose titration curve using curve fitting by XLfit software (IDBS).

[2] = Homo sapiens, MIA PaCa-2, 72 h, Table 3-1
[3] = GMPPNP-bound KRAS G12C incubated with compound 25° C. 1 hour, Table 2-1, read-out: IC50
[4] = IC50, GMPPNP-bound KRAS G12C incubated with compound 25° C. 1 hour, Table 2

T1 sequence (P01116 with tags, fused parts or gaps isoform P01116-2 G12C): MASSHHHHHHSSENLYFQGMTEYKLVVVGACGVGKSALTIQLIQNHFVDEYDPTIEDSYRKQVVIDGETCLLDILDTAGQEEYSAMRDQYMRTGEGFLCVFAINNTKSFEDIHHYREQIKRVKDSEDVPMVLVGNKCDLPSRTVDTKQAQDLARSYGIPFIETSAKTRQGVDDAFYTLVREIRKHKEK

Question: For `CO[C@H]1CC[C@H](NC/C=C/C(=O)Nc2ccc(C(=O)c3cn4c5c(cccc35)-c3c(C(F)(F)F)cc5c(nc(C)n5C)c3N(C)CC4)nc2)CC1` [Example 88, (E)-4-(((1r,4r)-4-methoxy-cyclohexyl)amino)-N-(6-(8,9,11-trimethyl-6-(trifluoromethyl)-8,11,12,13-tetrahydro-imidazo[4″,5″:5′,6′]benzo-[1′,2′:5,6][1,4]diazocino-[7,8,1-hi]indole-2-carbon-yl)pyridin-3-yl)but-2-enamide], which IC50 (MIA PaCa-2 cells; [2]) is on record?
Answer: Its IC50 is 6.92 nM.

Question: What about the IC50 [1, 3] of the same compound?
Answer: The IC50 was 39.5 nM.

Question: Which IC50 (MIA PaCa-2 cells; [2]) does the source give for `COc1cc2c(ncn2C)c2c1-c1cccn3c(C(=O)c4cc(F)c(NC(=O)/C=C/CNC5(C)CC5)c(F)c4)cc(c13)CCN2C` (single isomer, unassigned) [Example 160, (E)-N-(2,6-difluoro-4-(7-methoxy-9,12-dimethyl-9,12,13,14-tetrahydro-imidazo[4″,5″:5′,6′]benzo-[1′,2′:2,3]azocino[4,5,6-hi]indolizine-2-carbon-yl)phenyl)-4-((1-methyl-cyclopropyl)amino)but-2-enamide] here?
Answer: Its IC50 is 9.25 nM.

Question: And the IC50 [1, 3]?
Answer: Its IC50 is 5.71 nM.

Question: What does the source list for `COCc1nc2c3c(c(C(F)(F)F)cc2n1C)-c1cccc2c(C(=O)c4cc(F)c(NC(=O)/C=C/CNC5(C)COC5)c(F)c4)cn(c12)CCN3C` (single isomer, unassigned) [Example 97, (E)-N-(2,6-difluoro-4-(9-(methoxymethyl)-8,11-dimethyl-6-(trifluorometh-yl)-8,11,12,13-tetrahydro-imidazo[4″,5″:5′,6′]benzo-[1′,2′:5,6][1,4]diazocino-[7,8,1-hi]indole-2-carbon-yl)phenyl)-4-((3-methyl-oxetan-3-yl)amino)but-2-enamide]?
Answer: IC50 (MIA PaCa-2 cells; [2]): 7.91 nM; IC50 ([1]; IC50, GMPPNP-bound KRAS G12C incubated with compound 25° C. 1 hour, Table 2-1): 30.4 nM

Question: Which results are given for `CO[C@H]1CC[C@H](NC/C=C/C(=O)Nc2c(F)cc(C(=O)c3cn4c5c(cccc35)-c3c(Cl)cccc3OCCC4)cc2F)CC1` (single isomer, unassigned) [Example 4-1, (E)-N-(4-(11-chloro-5,6-dihydro-4H-benzo[8,9][1,5]oxazonino[7,6,5-hi]indole-1-carbonyl)-2,6-difluorophenyl)-4-(((1,4r)-4-methoxycyclohexyl)amino)but-2-enamide]?
Answer: IC50 (MIA PaCa-2 cells; Table 3): 3600 nM; IC50 [1, 4]: > 6700 nM

Question: Which IC50 (MIA PaCa-2 cells; Table 3) does the source give for `CO[C@H]1CC[C@H](NC/C=C/C(=O)Nc2c(F)cc(C(=O)c3cn4c5c(cccc35)-c3c(Cl)cccc3OCC4)cc2F)CC1` (single isomer, unassigned) [Example 1-2] here?
Answer: The IC50 was 160 nM.

Question: And the IC50 [1, 4]?
Answer: The IC50 was 180 nM.

Question: Which results are given for `CO[C@H]1CC[C@H](NC/C=C/C(=O)Nc2c(F)cc(C(=O)c3cn4c5c(cccc35)-c3c(Cl)cccc3OCCC4)cc2F)CC1` (single isomer, unassigned) [Example 4-2, (E)-N-(4-(11-chloro-5,6-dihydro-4H-benzo[8,9][1,5]oxazonino[7,6,5-hi]indole-1-carbonyl)-2,6-difluorophenyl)-4-(((1,4r)-4-methoxycyclohexyl)amino)but-2-enamide]?
Answer: IC50 (MIA PaCa-2 cells; Table 3): 260 nM; IC50 [1, 4]: 290 nM

Question: With `CO[C@H]1CC[C@H](NC/C=C/C(=O)Nc2c(F)cc(C(=O)c3cn4c5c(cccc35)-c3c(C)cc5c(nc(C)n5C)c3OC[C@H](C)C4)cc2F)CC1` (single isomer, unassigned) [Example 24] as the compound, how does the IC50 (MIA PaCa-2 cells; Table 3) read?
Answer: Its IC50 is 1100 nM.

Question: What about the IC50 [1, 4] of the same compound?
Answer: Its IC50 is 1800 nM.

Question: Which results are given for `CO[C@H]1CC[C@H](NC/C=C/C(=O)Nc2c(F)cc(C(=O)c3cc4c5c(cccn35)-c3c(Cl)cc5c(nc(C)n5C)c3OCC4)cc2F)CC1` [Example 53]?
Answer: IC50 (MIA PaCa-2 cells; [2]): 31.9 nM; IC50 [1, 3]: 22.2 nM

Question: Which IC50 (MIA PaCa-2 cells; Table 3) does the source give for `Cc1nc2c3c(c(C(F)(F)F)cc2n1C)-c1cccn2c(C(=O)c4cc(F)c(NC(=O)/C=C/CN(C)C)c(F)c4)cc(c12)CCO3` (single isomer, unassigned) [Example 38-2] here?
Answer: Its IC50 is 19 nM.

Question: And the IC50 ([1]; GMPPNP-bound KRAS G12C incubated with compound 25° C. 1 hour, Table 2, read-out: IC50)?
Answer: Its IC50 is 27 nM.

Source: patent US20240262842A1, “SMALL MOLECULE INHIBITORS OF KRAS G12C MUTANT” (Merck Sharp & Dohme LLC, priority 2021, published 2024)
